Like-named read-outs stand apart in the source and are kept apart here.
Experiments:
[1] = test system: guinea pig ileum longitudinal muscle with myenteric plexus; assay: Guinea Pig Ileum Test (electrically stimulated longitudinal muscle, inhibition of twitch height); format: cell-based; settings: ratio of IC50 of reference Met5-enkephalin (given as 100) to IC50 of test compound, same preparation, averaged over four preparations
Description: Adult male guinea pigs (Charles River, Hartley strain) weighing 300-500 g. are decapitated, and the terminal ileum is exposed by reflecting the overlying cecum, severed at the ileocecal juncture, and removed while cutting the mesenteric attachments to avoid excessive traction on the tissue. The ileum (about 30 cm. in length) is transferred to a beaker containing warm modified Krebs-Henseleit solution (118 mM sodium chloride, 4.75 mM potassium chloride, 2.45 mM calcium chloride, 1.19 mM potassium dihydrogen phosphate, 1.2 mM magnesium sulfate, 25 mM sodium bicarbonate, 11 mM glucose, 20 μM choline chloride and 0.125 μM pyrilamine maleate). The terminal (aboral) portion (about 10 cm. in length) is discarded, and segments (3-4 cm. in length) are cut from the remainder and gently slid onto a glass rod (5-6 mm. in diameter) and arranged so that the mesenteric attachment is in a straight line. A cotton swab moistened in the solution is then carefully used to separate the longitudinal muscle from the underlying circular muscle. The longitudinal muscle and adhering myenteric plexus is then gently removed from the remaining tissue with forceps.
Strips of thus prepared longitudinal muscle are mounted in a double-jacketed organ bath (5 ml.) under tension (1.0 g.), connected to isometric transducers (Grass FT 0.03), bathed in the modified Krebs-Henseleit solution described above, aerated with oxygen-carbon dioxide (95:5) and maintained at 37° C.
Stimulators (Grass S-44) are set to deliver repetitive monphasic square wave field stimulation (supramaximal voltage, 0.10 Hz., 0.25 msec. duration) through platinum ring electrodes at the top and bottom of the bath. Regular contractions of the muscle, which result from electrically-induced liberation of acetylcholine from postganglionic parasympathetic nerves, are recorded on a polygraph (Grass model 5). Following tissue equilibration (45-60 min.) and repeated washing (every 10 min.) an aqueous solution of a reference or test compound is added to the bath in a microliter volume (1.25-250 μl) and reductions in muscle twitch height are recorded. More compound can be added […] first washing the preparation.
From the results a half-maximal inhibitory concentration (IC50) value for the compound is computed by regression analysis of a linear plot of logarithm of concentration against percent of inhibition of twitch height (probits). The ratio of the […] of a reference compound to that of a test compound tested in the same preparation is the molar potency ratio. Usually four preparations are tested simultaneously by the same person (N=4), and the resulting four molar potency ratios are averaged.
The following results were obtained using the examples as test compounds and Met^5 -enkephalin as the reference compound: […]

[2] = test system: Male Swiss-Webster mice; assay: Mouse Acetylcholine Writhing Test; format: in vivo; settings: 20 min, subcutaneous, approximate, acetylcholine 3.2 mg./kg. i.p. 20 min after dosing
Description: Male Swiss-Webster mice each weighing 18-24 g. are treated subcutaneously (10 ml./kg. injection volume) or orally with the test compound in an aqueous vehicle. Twenty minutes thereafter each mouse is injected intraperitoneally with acetylcholine (3.2 mg./kg.) in aqueous sodium chloride (0.9%). This dose of acetylcholine causes one or more characteristic writhes in the two minute period following injection in control mice which receive the aqueous vehicle not containing the test compound. […] Test compounds are screened at doses of 100 and 30 mg./kg. subcutaneously and 300 and 100 mg./kg. orally using 15 mice at each dose level. ED50 values for active compounds are estimated by probit analysis of quantal scores at four or more dose levels using 15 mice at each dose level.

[3] = test system: rat; settings: rat tail flick, cited from earlier work
[4] = test system: opiate receptor; settings: rat brain membranes; cited from earlier work
[5] = test system: guinea pig ileum; settings: cited from earlier work
[6] = test system: mouse vas deferens; settings: cited from earlier work

| Molecule | Average Molar Potency Ratio [1] | other results |
| --- | --- | --- |
| C[C@@H](NC(=O)[C@@H](N)Cc1ccc(O)cc1)C(=O)NCCc1ccccc1.Cl.O [Example 1, L-tyrosyl-N-(2-phenylethyl)-D-alaninamide monohydrochloride hydrate (4:5)] | 14 | – |
| C[C@@H](NC(=O)[C@@H](N)Cc1ccc(O)cc1)C(=O)N(C)CCCc1ccccc1.Cl.O [Example 2, L-tyrosyl-N-methyl-N-(3-phenylpropyl)-D-alaninamide monohydrochloride monohydrate] | 9 | ED50 [2]: > 10 mg/kg |
| CCN(CCCc1ccccc1)C(=O)[C@@H](C)NC(=O)[C@@H](N)Cc1ccc(O)cc1.Cl [Example 4, L-tyrosyl-N-ethyl-N-(3-phenylpropyl)-D-alaninamide monohydrochloride] | 4 | ED50 [2]: > 30 mg/kg |
| C[C@@H](NC(=O)[C@@H](N)Cc1ccc(O)cc1)C(=O)NCCCCc1ccccc1.Cl [Example 5, L-tyrosyl-N-(4-phenylbutyl)-D-alaninamide monohydrochloride] | 12 | – |
| C[C@@H](NC(=O)[C@@H](N)Cc1ccc(O)cc1)C(=O)NCCCCCc1ccccc1.Cl.O [Example 6, L-tyrosyl-N-(5-phenylpentyl)-D-alaninamide monohydrochloride monohydrate] | 30 | – |
| C[C@@H](NC(=O)[C@@H](N)Cc1ccc(O)cc1)C(=O)N(CCCc1ccccc1)CCN(C)C.Cl.Cl [Example 7, L-tyrosyl-N-[2-(dimethylamino)ethyl]-N-(3-phenylpropyl)-D-alaninamide dihydrochloride] | 4 | – |
| C[C@@H](CCc1ccccc1)NC(=O)[C@@H](C)NC(=O)[C@@H](N)Cc1ccc(O)cc1.Cl [Example 8, L-tyrosyl-N-(1-S-methyl-3-phenylpropyl)-D-alaninamide monohydrochloride] | 115 | – |
| C[C@H](CCc1ccccc1)NC(=O)[C@@H](C)NC(=O)[C@@H](N)Cc1ccc(O)cc1.Cl [Example 9, L-tyrosyl-N-(1-R-methyl-3-phenylpropyl)-D-alaninamide monohydrochloride] | 12 | – |
| CSCCCN(CCCc1ccccc1)C(=O)[C@@H](C)NC(=O)[C@@H](N)Cc1ccc(O)cc1.CSCCCN(CCCc1ccccc1)C(=O)[C@@H](C)NC(=O)[C@@H](N)Cc1ccc(O)cc1.Cl.Cl.O [Example 10, L-tyrosyl-N-[3-(methylthio)propyl]-N-(3-phenylpropyl)-D-alaninamide monhydrochloride hemihydrate] | 15 | – |
| C[C@@H](NC(=O)[C@@H](N)Cc1ccc(O)cc1)C(=O)N(CCCc1ccccc1)CCC[S+](C)[O-].Cl (stereo partly drawn) [Example 11, L-tyrosyl-N-[3-(methylsulfinyl)propyl]-N-(3-phenylpropyl)-D-alaninamide monohydrochloride] | 3 | – |
| C[C@@H](NC(=O)[C@@H](N)Cc1ccc(O)cc1)C(N)=O [H-Tyr-D-Ala-NH2] | – | times less potent than morphine ([3]; intravenously): greater than 10 times; times less potent than morphine ([3]; intraventricularly): 200 times; times less affinity than morphine [4]: 830 times |
| C[C@@H](NC(=O)[C@@H](N)Cc1ccc(O)cc1)C(=O)NCCNCCc1ccccc1 [HTyrD-AlaNH(CH2)2 NH(CH2)2 Phenyl] | – | potency relative to Met-enkephalin [5]: < 1%; potency relative to Met-enkephalin [6]: < 1% |
| L-tyrosyl-N-(3-phenylpropyl)-D-alaninamide monohydrochloride sesquihydrate [Example 3] | 117 | – |
| Met^5 -enkephalin [reference compound] | 100 | – |

Source: patent publication US4533657A, “Analgesic dipeptide amides and method of use and composition thereof” (Sterling Drug Inc., priority 1982, dated 1985)
